Results: patent US20230416257A1, “TOLL-LIKE RECEPTOR AGONIST” (priority 2020, published 2023)

Test system: antigen-specific T cells in the draining lymph nodes (LN) and spleen
Assay: A/Vic murine vaccine model: cytokine secretion by antigen-stimulated T cells
Format: in vivo
Conditions: immunized mice, 5 days after tertiary immunization (day 33); comparison of UM-2014 and UM-1007; FIG. 4
Method: The adjuvanticity of liposomal formulations of UM-2014 (1 and 10 μg doses) was evaluated in an A/Vic murine vaccine model. Mice were intramuscularly immunized at day 0, 14, and 28, with blood collection at day 14 and day 28 (14dp1 and 14dp2, respectively). A tertiary immunization at day 28 was administered to assess cytokine production of antigen-specific T cells in the draining lymph nodes (LN) and spleen 5 days later (day 33).

In the case of `CCCCCCCCCCCCCCCC(=O)OC[C@H](COCCOCCOCCOP(=O)(O)OCCN1CCC(Cn2c(O)nc3c(N)nc(O[C@@H](C)CCC)nc32)CC1)OC(=O)CCCCCCCCCCCCCCC` [UM-1007], the “cytokine secretion by antigen-stimulated T cells from draining LNs and spleen” value was “very similar”.
